pKd: −log10 of the molar value. Positions of bridges follow the written chain, without caps; N, C: chain ends. Residues, ends and D or L forms follow the SMILES beside them.
Columns and labels:
intestinal secretion = assay: Suckling mouse model of intestinal secretion (SuMi assay); type: in vivo; conditions: suckling mice; dose response; FIG. 5a/5b
Procedure: In this model a test compound is administered to suckling mice that are between 7 and 9 days old. After the mice are sacrificed, the gastrointestinal tract from the stomach to the cecum is dissected (“guts”). The remains (“carcass”) as well as the guts are weighed and the ratio of guts to carcass weight is calculated. If the ratio is above 0.09, one can conclude that the test compound increases intestinal secretion. […] The effect of Zelnorm® was also studied.

[1] = test system: abdominal response to colorectal distension; assay: Trinitrobenzenesulphonic acid (TNBS)-induced rectal allodynia model, colorectal distension; type: in vivo, Wistar rats; conditions: rats, FIG. 7
Procedure: Male Wistar rats (220-250 g) were premedicated with 0.5 mg/kg of acepromazine injected intraperitoneally (IP) and anesthetized by intramuscular administration of 100 mg/kg of ketamine. Pairs of nichrome wire electrodes (60 cm in length and 80 μm in diameter) were implanted in the striated muscle of the abdomen, 2 cm laterally from the white line. The free ends of electrodes were exteriorized on the back of the neck and protected by a plastic tube attached to the skin. Electromyographic (EMG) recordings were started 5 days after surgery. Electrical activity of abdominal striated muscle was recorded with an electroencephalograph machine (Mini VIII, Alvar, Paris, France) using a short time constant (0.03 sec.) to remove low-frequency signals (<3 Hz).
Ten days post surgical implantation, trinitrobenzenesulphonic acid (TNBS) was administered to induce rectal inflammation. TNBS (80 mg kg^−1 in 0.3 ml 50% ethanol) was administered intrarectally through a silicone rubber catheter introduced at 3 cm from the anus under light diethyl-ether anesthesia, as described (Morteau et al. 1994 Dig Dis Sci 39:1239). […] Evaluation of rectal sensitivity, as measured by EMG, was performed before (1-2 days) and 3 days following rectal instillation of TNBS.
The number of spike bursts that corresponds to abdominal contractions was determined per 5 min periods. […]

[2] = Absorbability/bioavailability study in mice, serum detection by competitive ELISA; type: in vivo, CD1 mice; conditions: FIG. 10a
Procedure: To study the pharmacokinetics of SEQ ID NO:3, absorbability studies in mice were performed by administering SEQ ID NO:3 intravaneously via tail vein injection or orally by gavage to 8-week-old CD1 mice. Serum was collected from the animals at various time points and tested for the presence of SEQ ID NO:3 using a competitive enzyme-linked immunoabsorbent assay (Oxoid, ST EIA kit, Cat#TD0700). The assay utilized monoclonal antibodies against ST peptide (antibodies are provided in the Oxoid kit) and synthetically manufactured SEQ ID NO:3.

[3] = molecular target: T1, GC-C receptors found in rat intestinal mucosa (Rattus norvegicus, UniProt P23897); assay: biochemical
T1 sequence (P23897 23-1072): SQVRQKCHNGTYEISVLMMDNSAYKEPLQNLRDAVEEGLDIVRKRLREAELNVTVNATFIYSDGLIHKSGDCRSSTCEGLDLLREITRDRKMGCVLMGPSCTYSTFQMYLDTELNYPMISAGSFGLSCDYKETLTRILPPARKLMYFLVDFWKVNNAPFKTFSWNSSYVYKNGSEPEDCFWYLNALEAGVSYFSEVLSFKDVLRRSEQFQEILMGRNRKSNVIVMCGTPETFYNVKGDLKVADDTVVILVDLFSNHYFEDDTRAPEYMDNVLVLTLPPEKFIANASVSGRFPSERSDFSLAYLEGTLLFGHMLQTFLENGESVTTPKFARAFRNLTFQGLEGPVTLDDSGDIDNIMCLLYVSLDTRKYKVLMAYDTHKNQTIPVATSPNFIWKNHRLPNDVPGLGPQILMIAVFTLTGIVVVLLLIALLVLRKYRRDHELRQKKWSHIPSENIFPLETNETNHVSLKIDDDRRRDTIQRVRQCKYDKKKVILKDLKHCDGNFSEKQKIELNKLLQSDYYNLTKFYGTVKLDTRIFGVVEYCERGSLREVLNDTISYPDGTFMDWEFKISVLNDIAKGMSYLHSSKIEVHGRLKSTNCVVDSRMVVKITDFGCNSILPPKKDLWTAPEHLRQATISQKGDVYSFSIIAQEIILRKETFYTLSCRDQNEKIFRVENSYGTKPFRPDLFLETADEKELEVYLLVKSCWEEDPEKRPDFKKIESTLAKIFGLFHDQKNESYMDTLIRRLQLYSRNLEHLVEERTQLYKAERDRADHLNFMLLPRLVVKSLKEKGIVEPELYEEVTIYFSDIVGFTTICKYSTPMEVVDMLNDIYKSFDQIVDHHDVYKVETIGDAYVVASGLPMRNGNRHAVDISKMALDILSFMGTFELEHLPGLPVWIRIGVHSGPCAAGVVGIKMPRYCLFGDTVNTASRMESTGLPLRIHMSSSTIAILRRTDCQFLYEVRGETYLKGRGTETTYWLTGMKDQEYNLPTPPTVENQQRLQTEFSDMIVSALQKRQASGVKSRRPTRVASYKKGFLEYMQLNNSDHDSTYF
Procedure: To determine the affinity of SEQ ID NO:3 for GC-C receptors found in rat intestinal mucosa, a competition binding assay was performed using rate intestinal epithelial cells. Epithelial cells from the small intestine of rats were obtained as described by Kessler et al. (J. Biol. Chem. 245: 5281-5288 (1970)). Briefly, animals were sacrificed and their abdominal cavities exposed. The small intestine was rinsed with 300 ml ice cold saline or PBS. 10 cm of the small intestine measured at 10 cm from the pylorus was removed and cut into 1 inch segments. Intestinal mucosa was extruded from the intestine by gentle pressure between a piece of parafilm and a P-1000 pipette tip. Intestinal epithelial cells were placed in 2 ml PBS and pipetted up and down with a 5 ml pipette to make a suspension of cells.
A competition binding assay was performed based on the method of Giannella et al. (Am. J. Physiol. 245: G492-G498) between [^125I] labeled SEQ ID NO:4 and SEQ ID NO:3. The assay mixture contained: 0.5 ml of DME with 20 mM HEPES-KOH pH 7.0, 0.9 mg of the cell suspension listed above, 21.4 fmol [^125I]-SEQ ID NO:4 (42.8 pM), and different concentrations of competitor SEQ ID NO:3 (0.01 to 1000 nM). […] The filters were washed with 5 ml ice-cold PBS and radioactivity was measured.

PBQ-induced writhing = assay: Phenylbenzoquinone (PBQ)-induced writhing model

SMILES: C[C@@H]1NC(=O)[C@@H]2CCCN2C(=O)[C@H](CC(N)=O)NC(=O)[C@@H]2CSSC[C@H](N)C(=O)N[C@H]3CSSC[C@H](NC1=O)C(=O)N[C@@H]([C@@H](C)O)C(=O)NCC(=O)N[C@H](C(=O)N[C@@H](Cc1ccc(O)cc1)C(=O)O)CSSC[C@H](NC(=O)[C@H](Cc1ccc(O)cc1)NC(=O)[C@H](CCC(=O)O)NC3=O)C(=O)N2 [SEQ ID NO:3, Cys Cys Glu Tyr Cys Cys Asn Pro Ala Cys Thr Gly Cys Tyr] (H-CCEYCCNPACTGCY-OH; disulfide 1-6, 2-10, 5-13; N-terminus and C-terminus assumed)
- intestinal secretion (guts to carcass weight ratio) (intestinal secretion): increase intestinal secretion
- abdominal response (abdominal contractions, EMG) ([1]; 0.3 μg/kg): Significant decreases in abdominal response
- abdominal response (abdominal contractions, EMG) ([1]; 3 μg/kg): Significant decreases in abdominal response
- bioavailability ([2]; CD1, mouse, serum, oral versus IV): < 2.2%
- systemic absorption ([2]; oral): minimally systemically absorbed
- pKd [3]: 8.35
- antinociceptive effect relative to indomethacin (PBQ-induced writhing; mouse PBQ writhing, visceral pain model): antinociceptive effects in this visceral pain model comparable to the intermediate doses of indomethacin
- writhings compared to the vehicle control (PBQ-induced writhing; mouse, oral, 2.5 mg/kg dose, FIG. 8b): Significant reductions in writhings
